Data published in paper PMC6979384, “Characterization of the plant homeodomain (PHD) reader family for their histone tail interactions” (Epigenetics & Chromatin, 2020).
One block for each substance: values may come before it.

Assays:
Assay in all cases: Histone peptide microarray
Format in all cases: binding, human
KDM5B (3) = conditions: arrays performed twice, n of 4; for Array Heatmap signal, KDM5B (3): GST-tagged KDM5B (3), histone peptide array
Outline: (§1)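 GST-PHD reader, 0.5 μM, probed on 293-peptide histone array (single/combinatorial PTMs); optimized array protocol; signal = mean ± SD, n = 4.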

TAF3 = conditions: arrays performed twice, n of 4; for Array Heatmap signal, TAF3: GST-tagged TAF3, histone peptide array
Outline: as §1

AIRE (PP) = conditions: arrays performed twice, n of 4; for Array Heatmap signal, AIRE (PP): GST-tagged AIRE (PP), histone peptide array
Outline: as §1

PHF2 = conditions: arrays performed twice, n of 4; for Array Heatmap signal, PHF2: GST-tagged PHF2, histone peptide array
Outline: as §1

ING5 = conditions: arrays performed twice, n of 4; for Array Heatmap signal, ING5: GST-tagged ING5, histone peptide array
Outline: as §1

SP140L = conditions: arrays performed twice, n of 4; for Array Heatmap signal, SP140L: GST-tagged SP140L, histone peptide array
Outline: as §1

KDM5A (1) = conditions: arrays performed twice, n of 4; for Array Heatmap signal, KDM5A (1): GST-tagged KDM5A (1), histone peptide array
Outline: as §1

KDM4C (TTP) = conditions: arrays performed twice, n of 4; for Array Heatmap signal, KDM4C (TTP): GST-tagged KDM4C (TTP = Tandem Tudor domain + PHD), histone peptide array
Outline: as §1

ING4 = conditions: arrays performed twice, n of 4; for Array Heatmap signal, ING4: GST-tagged ING4, histone peptide array
Outline: as §1

PHF23 = conditions: arrays performed twice, n of 4; for Array Heatmap signal, PHF23: GST-tagged PHF23, histone peptide array
Outline: as §1

PHRF1 (RP) = conditions: arrays performed twice, n of 4; for Array Heatmap signal, PHRF1 (RP): GST-tagged PHRF1 (RP), histone peptide array
Outline: as §1

BPTF (PB) = conditions: arrays performed twice, n of 4; for Array Heatmap signal, BPTF (PB): GST-tagged BPTF (PB = PHD + Bromodomain), histone peptide array
Outline: as §1

DPF2 (PPC2W2) = conditions: arrays performed twice, n of 4; for Array Heatmap signal, DPF2 (PPC2W2): GST-tagged DPF2 (PPC2W2 = Dual PHD + C2W2-type Zn-finger), histone peptide array
Outline: as §1

RAG2 = conditions: arrays performed twice, n of 4; for Array Heatmap signal, RAG2: GST-tagged RAG2, histone peptide array
Outline: as §1

CHD5 (PPCC) = conditions: arrays performed twice, n of 4; for Array Heatmap signal, CHD5 (PPCC): GST-tagged CHD5 (PPCC = Dual PHD + Dual Chromodomain), histone peptide array
Outline: as §1

BAZ2B = conditions: arrays performed twice, n of 4; for Array Heatmap signal, BAZ2B: GST-tagged BAZ2B, histone peptide array
Outline: as §1

MORC3 (CW) = conditions: arrays performed twice, n of 4; for Array Heatmap signal, MORC3 (CW): GST-tagged MORC3 (CW = CW-type Zn-finger), histone peptide array
Outline: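 A peptide microarray holding 293 synthetic histone peptides with individual or combinatorial modifications was probed with each GST-PHD protein at 0.5 μM. Values represent mean intensity (±SD) from four replicates.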

MLL5 = conditions: arrays performed twice, n of 4; for Array Heatmap signal, MLL5: GST-tagged MLL5, histone peptide array
Outline: as §1

CHD5 (PCC) = conditions: arrays performed twice, n of 4; for Array Heatmap signal, CHD5 (PCC): GST-tagged CHD5 (PCC = PHD + Dual Chromodomain), histone peptide array
Outline: as §1

CHD4 (PPCC) = conditions: arrays performed twice, n of 4; for Array Heatmap signal, CHD4 (PPCC): GST-tagged CHD4 (PPCC = Dual PHD + Dual Chromodomain), histone peptide array
Outline: as §1

DIDO1 = conditions: arrays performed twice, n of 4; for Array Heatmap signal, DIDO1: GST-tagged DIDO1, histone peptide array
Outline: as §1

PHF8 = conditions: arrays performed twice, n of 4; for Array Heatmap signal, PHF8: GST-tagged PHF8, histone peptide array
Outline: as §1

ING2 = conditions: arrays performed twice, n of 4; for Array Heatmap signal, ING2: GST-tagged ING2, histone peptide array
Outline: as §1

KDM7A = conditions: arrays performed twice, n of 4; for Array Heatmap signal, KDM7A: GST-tagged KDM7A, histone peptide array
Outline: as §1

PHF21A = conditions: arrays performed twice, n of 4; for Array Heatmap signal, PHF21A: GST-tagged PHF21A, histone peptide array
Outline: as §1

PHF13 = conditions: arrays performed twice, n of 4; for Array Heatmap signal, PHF13: GST-tagged PHF13, histone peptide array
Outline: as §1

TRIM66 (PB) = conditions: arrays performed twice, n of 4; for Array Heatmap signal, TRIM66 (PB): GST-tagged TRIM66 (PB = PHD + Bromodomain), histone peptide array
Outline: as §1

KDM5A (3) = conditions: arrays performed twice, n of 4; for Array Heatmap signal, KDM5A (3): GST-tagged KDM5A (3), histone peptide array
Outline: as §1

ING3 = conditions: arrays performed twice, n of 4; for Array Heatmap signal, ING3: GST-tagged ING3, histone peptide array
Outline: as §1

KDM5B (1) = conditions: arrays performed twice, n of 4; for Array Heatmap signal, KDM5B (1): GST-tagged KDM5B (1), histone peptide array
Outline: as §1

ING1 = conditions: arrays performed twice, n of 4; for Array Heatmap signal, ING1: GST-tagged ING1, histone peptide array
Outline: as §1

Substance: H4K12ac + K16ac + K20me2: H4 11-27
Array Heatmap signal, KDM5B (3) (KDM5B (3)): 0.5172 | Array Heatmap signal, TAF3 (TAF3): 0.2922 | Array Heatmap signal, AIRE (PP) (AIRE (PP)): 0.4913 | Array Heatmap signal, PHF2 (PHF2): 0.4604 | Array Heatmap signal, ING5 (ING5): 0.405 | Array Heatmap signal, SP140L (SP140L): 0.3577 | Array Heatmap signal, KDM5A (1) (KDM5A (1)): 0.4994 | Array Heatmap signal, KDM4C (TTP) (KDM4C (TTP)): 0.537 | Array Heatmap signal, ING4 (ING4): 0.4756 | Array Heatmap signal, PHF23 (PHF23): 0.5618 | Array Heatmap signal, PHRF1 (RP) (PHRF1 (RP)): 0.4498 | Array Heatmap signal, BPTF (PB) (BPTF (PB)): 0.3936 | Array Heatmap signal, DPF2 (PPC2W2) (DPF2 (PPC2W2)): 0.6546 | Array Heatmap signal, RAG2 (RAG2): 0.281 | Array Heatmap signal, CHD5 (PPCC) (CHD5 (PPCC)): 0.6049 | Array Heatmap signal, BAZ2B (BAZ2B): 0.5022 | Array Heatmap signal, MORC3 (CW) (MORC3 (CW)): 0.4076 | Array Heatmap signal, MLL5 (MLL5): 0.5834 | Array Heatmap signal, CHD5 (PCC) (CHD5 (PCC)): 0.8229 | Array Heatmap signal, CHD4 (PPCC) (CHD4 (PPCC)): 0.5676 | Array Heatmap signal, DIDO1 (DIDO1): 0.7262 | Array Heatmap signal, PHF8 (PHF8): 0.3877 | Array Heatmap signal, ING2 (ING2): 0.6089 | Array Heatmap signal, KDM7A (KDM7A): 0.418 | Array Heatmap signal, PHF21A (PHF21A): 0.4824 | Array Heatmap signal, PHF13 (PHF13): 0.6561 | Array Heatmap signal, TRIM66 (PB) (TRIM66 (PB)): 0.6093 | Array Heatmap signal, KDM5A (3) (KDM5A (3)): 0.5092 | Array Heatmap signal, ING3 (ING3): 0.5264 | Array Heatmap signal, KDM5B (1) (KDM5B (1)): 0.6899 | Array Heatmap signal, ING1 (ING1): 0.5241

Substance: H4K12ac + K16ac + K20me3: H4 11-27
Array Heatmap signal, KDM5B (3) (KDM5B (3)): 0.5038 | Array Heatmap signal, TAF3 (TAF3): 0.2674 | Array Heatmap signal, AIRE (PP) (AIRE (PP)): 0.5868 | Array Heatmap signal, PHF2 (PHF2): 0.4705 | Array Heatmap signal, ING5 (ING5): 0.3933 | Array Heatmap signal, SP140L (SP140L): 0.368 | Array Heatmap signal, KDM5A (1) (KDM5A (1)): 0.5006 | Array Heatmap signal, KDM4C (TTP) (KDM4C (TTP)): 0.5508 | Array Heatmap signal, ING4 (ING4): 0.5105 | Array Heatmap signal, PHF23 (PHF23): 0.5129 | Array Heatmap signal, PHRF1 (RP) (PHRF1 (RP)): 0.4386 | Array Heatmap signal, BPTF (PB) (BPTF (PB)): 0.3647 | Array Heatmap signal, DPF2 (PPC2W2) (DPF2 (PPC2W2)): 0.7109 | Array Heatmap signal, RAG2 (RAG2): 0.2525 | Array Heatmap signal, CHD5 (PPCC) (CHD5 (PPCC)): 0.6012 | Array Heatmap signal, BAZ2B (BAZ2B): 0.5532 | Array Heatmap signal, MORC3 (CW) (MORC3 (CW)): 0.4027 | Array Heatmap signal, MLL5 (MLL5): 0.5614 | Array Heatmap signal, CHD5 (PCC) (CHD5 (PCC)): 0.9097 | Array Heatmap signal, CHD4 (PPCC) (CHD4 (PPCC)): 0.6123 | Array Heatmap signal, DIDO1 (DIDO1): 0.6408 | Array Heatmap signal, PHF8 (PHF8): 0.3563 | Array Heatmap signal, ING2 (ING2): 0.5812 | Array Heatmap signal, KDM7A (KDM7A): 0.4502 | Array Heatmap signal, PHF21A (PHF21A): 0.52 | Array Heatmap signal, PHF13 (PHF13): 0.6523 | Array Heatmap signal, TRIM66 (PB) (TRIM66 (PB)): 0.6534 | Array Heatmap signal, KDM5A (3) (KDM5A (3)): 0.4096 | Array Heatmap signal, ING3 (ING3): 0.4869 | Array Heatmap signal, KDM5B (1) (KDM5B (1)): 0.6527 | Array Heatmap signal, ING1 (ING1): 0.5304

Array Heatmap value (peptide array binding signal) (KDM5B (3); KDM5B (3), GST-tagged): 0.5497 | Array Heatmap value (peptide array binding signal) (TAF3; TAF3, GST-tagged): 0.2733 | Array Heatmap value (peptide array binding signal) (AIRE (PP); AIRE (PP), GST-tagged): 0.5505 | Array Heatmap value (peptide array binding signal) (PHF2; PHF2, GST-tagged): 0.4316 | Array Heatmap value (peptide array binding signal) (ING5; ING5, GST-tagged): 0.3842 | Array Heatmap value (peptide array binding signal) (SP140L; SP140L, GST-tagged): 0.3715 | Array Heatmap value (peptide array binding signal) (KDM5A (1); KDM5A (1), GST-tagged): 0.5024 | Array Heatmap value (peptide array binding signal) (KDM4C (TTP); KDM4C (TTP), GST-tagged): 0.5414 | Array Heatmap value (peptide array binding signal) (ING4; ING4, GST-tagged): 0.4824 | Array Heatmap value (peptide array binding signal) (PHF23; PHF23, GST-tagged): 0.5334 | Array Heatmap value (peptide array binding signal) (PHRF1 (RP); PHRF1 (RP), GST-tagged): 0.4 | Array Heatmap value (peptide array binding signal) (BPTF (PB); BPTF (PB), GST-tagged): 0.3685 | Array Heatmap value (peptide array binding signal) (DPF2 (PPC2W2); DPF2 (PPC2W2), GST-tagged): 0.6377 | Array Heatmap value (peptide array binding signal) (RAG2; RAG2, GST-tagged): 0.2498 | Array Heatmap value (peptide array binding signal) (CHD5 (PPCC); CHD5 (PPCC), GST-tagged): 0.5873 | Array Heatmap value (peptide array binding signal) (BAZ2B; BAZ2B, GST-tagged): 0.5161 | Array Heatmap value (peptide array binding signal) (MORC3 (CW); MORC3 (CW), GST-tagged): 0.3391 | Array Heatmap value (peptide array binding signal) (MLL5; MLL5, GST-tagged): 0.5351 | Array Heatmap value (peptide array binding signal) (CHD5 (PCC); CHD5 (PCC), GST-tagged): 0.8332 | Array Heatmap value (peptide array binding signal) (CHD4 (PPCC); CHD4 (PPCC), GST-tagged): 0.6135 | Array Heatmap value (peptide array binding signal) (DIDO1; DIDO1, GST-tagged): 0.604 | Array Heatmap value (peptide array binding signal) (PHF8; PHF8, GST-tagged): 0.3219 | Array Heatmap value (peptide array binding signal) (ING2; ING2, GST-tagged): 0.5908 | Array Heatmap value (peptide array binding signal) (KDM7A; KDM7A, GST-tagged): 0.4248 | Array Heatmap value (peptide array binding signal) (PHF21A; PHF21A, GST-tagged): 0.5207 | Array Heatmap value (peptide array binding signal) (PHF13; PHF13, GST-tagged): 0.6532 | Array Heatmap value (peptide array binding signal) (TRIM66 (PB); TRIM66 (PB), GST-tagged): 0.5961 | Array Heatmap value (peptide array binding signal) (KDM5A (3); KDM5A (3), GST-tagged): 0.3797 | Array Heatmap value (peptide array binding signal) (ING3; ING3, GST-tagged): 0.496 | Array Heatmap value (peptide array binding signal) (KDM5B (1); KDM5B (1), GST-tagged): 0.6403 | Array Heatmap value (peptide array binding signal) (ING1; ING1, GST-tagged): 0.4954
Substance: H4K12ac + K20ac: H4 1-23
